Experimental data: patent US8846684B2 (priority 2011, dated 2014)
pIC50: −log10 of the molar value.

Test system: WEEV replicon
Assay: microbe, parasite or virus in culture
Format: cell-based, Western equine encephalitis virus
Settings: Western equine encephalitis virus; for activity at 50 µM: read-out: 50 μM (% control) Luc

Structure (SMILES) | activity at 50 µM [%] | pIC50
O=C(NC1Cc2ccccc2C1)C1CCN(C(=O)c2cc3ccccc3n2Cc2ccc(Cl)cc2)CC1 [CCG 205471, 1-(1-(4-chlorobenzyl)-1H-indole-2-carbonyl)-N-(2,3-dihydro-1H-inden-2-yl)piperidine-4-carboxamide] | 60.9 | 
O=C(c1cc2ccccc2n1Cc1ccc(Cl)cc1)N1CCC(C(=O)N2CCCC2c2ccccc2)CC1 (stereo not drawn) [CCG 205473, (1-(4-chlorobenzyl)-1H-indol-2-yl)(4-(2-phenylpyrrolidine-1-carbonyl)piperidin-1-yl)methanone] | 33.9 | 
O=C(c1cc2ccccc2n1Cc1ccc(Cl)cc1)N1CCC(C(=O)N2CCC(c3ccccc3)C2)CC1 (stereo not drawn) [CCG 205474, (1-(4-chlorobenzyl)-1H-indol-2-yl)(4-(3-phenylpyrrolidine-1-carbonyl)piperidin-1-yl)methanone] | 57.1 | 
O=C(c1cc2ccccc2n1Cc1ccc(Cl)cc1)N1CCC(CN2CCCCC2)CC1 [CCG 205476, (1-(4-chlorobenzyl)-1H-indol-2-yl)(4-(piperidin-1-ylmethyl)piperidin-1-yl)methanone] | 6.5 | 5.01
COc1ccc(Cn2c(C(=O)N3CCC(C(=O)N(C)Cc4ccccc4)CC3)cc3ccccc32)cc1 [CCG 205477, N-benzyl-1-(1-(4-methoxybenzyl)-1H-indole-2-carbonyl)-N-methylpiperidine-4-carboxamide] | 33.3 | 4.78
O=C(NCc1ccccc1)C1CCCN(C(=O)c2cc3ccccc3n2Cc2ccc(Cl)cc2)C1 (stereo not drawn) [CCG 205483, N-benzyl-1-(1-(4-chlorobenzyl)-1H-indole-2-carbonyl)piperidine-3-carboxamide] | 44.1 | 4.51
CN(Cc1ccccc1)C(=O)C1CCN(C(=O)c2cc3ccccc3n2Cc2ccc([N+](=O)[O-])cc2)CC1 [CCG 205484, N-benzyl-N-methyl-1-(1-(4-nitrobenzyl)-1H-indole-2-carbonyl)piperidine-4-carboxamide] | 54 | 4.38
O=C(c1cc2ccccc2n1Cc1ccc(Cl)cc1)N1CCN(Cc2ccccc2)CC1 [CCG 206327, (4-benzylpiperazin-1-yl)(1-(4-chlorobenzyl)-1H-indol-2-yl)methanone] | 33.3 | 4.94
CC(NC(=O)C1CCN(C(=O)c2cc3ccccc3n2Cc2ccc(Cl)cc2)CC1)c1ccncc1 (stereo not drawn) [CCG 206329, 1-(1-(4-chlorobenzyl)-1H-indole-2-carbonyl)-N-(1-(pyridin-4-yl)ethyl)piperidine-4-carboxamide] | 12.7 | 5.62
CN(Cc1ccccc1)C(=O)C1CCN(C(=O)c2cc3ccccc3n2Cc2ccc(C#N)cc2)CC1 [CCG 206330, N-benzyl-1-(1-(4-cyanobenzyl)-1H-indole-2-carbonyl)-N-methylpiperidine-4-carboxamide] | 45.2 | 4.10
COCCn1c(C(=O)N2CCC(C(=O)N(C)Cc3ccccc3)CC2)cc2ccccc21 [CCG 206331, N-benzyl-1-(1-(2-methoxyethyl)-1H-indole-2-carbonyl)-N-methylpiperidine-4-carboxamide] | 74.5 | 
CC(C)Cn1c(C(=O)N2CCC(C(=O)N(C)Cc3ccccc3)CC2)cc2ccccc21 [CCG 206332, N-benzyl-1-(1-isobutyl-1H-indole-2-carbonyl)-N-methylpiperidine-4-carboxamide] | 1.7 | 4.55
CC(=O)n1c(C(=O)N2CCC(C(=O)N(C)Cc3ccccc3)CC2)cc2ccccc21 [CCG 206333, 1-(1-acetyl-1H-indole-2-carbonyl)-N-benzyl-N-methylpiperidine-4-carboxamide] | 58.5 | 
O=C(Nc1ccccc1)C1CCN(C(=O)c2cc3ccccc3n2Cc2ccc(Cl)cc2)CC1 [CCG 206334, 1-(1-(4-chlorobenzyl)-1H-indole-2-carbonyl)-N-phenylpiperidine-4-carboxamide] | 77.3 | 
O=C(NCCc1ccncc1)C1CCN(C(=O)c2cccn2Cc2ccc(Cl)cc2)CC1 [CCG 206381, 1-(1-(4-chlorobenzyl)-1H-pyrrole-2-carbonyl)-N-(2-(pyridin-4-yl)ethyl)piperidine-4-carboxamide] | 9.9 | 6.17
O=C(NCC1Cc2ccccc2C1)C1CCN(C(=O)c2cc3ccccc3n2Cc2ccc(Cl)cc2)CC1 [CCG 206382, 1-(1-(4-chlorobenzyl)-1H-indole-2-carbonyl)-N-((2,3-dihydro-1H-inden-2-yl)methyl)piperidine-4-carboxamide] | 25.8 | 6.28
COc1cccc(CCNC(=O)C2CCN(C(=O)c3cc4ccccc4n3Cc3ccc(Cl)cc3)CC2)c1 [CCG 206395, 1-(1-(4-chlorobenzyl)-1H-indole-2-carbonyl)-N-(3-methoxyphenethyl)piperidine-4-carboxamide] | 38.4 | 4.93
O=C(NCCc1ccc(F)cc1)C1CCN(C(=O)c2cc3ccccc3n2Cc2ccc(Cl)cc2)CC1 [CCG 206396, 1-(1-(4-chlorobenzyl)-1H-indole-2-carbonyl)-N-(4-fluorophenethyl)piperidine-4-carboxamide] | 34.9 | 4.98
O=C(NCCc1ccccc1)C1CCN(C(=O)c2cc3ccccc3n2Cc2ccc(Cl)cc2)CC1 [CCG 206397, 1-(1-(4-chlorobenzyl)-1H-indole-2-carbonyl)-N-phenethylpiperidine-4-carboxamide] | 40.2 | 4.82
COc1ccc(CCNC(=O)C2CCN(C(=O)c3cc4ccccc4n3Cc3ccc(Cl)cc3)CC2)cc1 [CCG 206398, 1-(1-(4-chlorobenzyl)-1H-indole-2-carbonyl)-N-(4-methoxyphenethyl)piperidine-4-carboxamide] | 12.9 | 5.15
O=C(NCc1cccc(F)c1)C1CCN(C(=O)c2cc3ccccc3n2Cc2ccc(Cl)cc2)CC1 [CCG 206399, 1-(1-(4-chlorobenzyl)-1H-indole-2-carbonyl)-N-(3-fluorobenzyl)piperidine-4-carboxamide] | 50.4 | 
O=C(NCCc1ccc(Cl)cc1)C1CCN(C(=O)c2cc3ccccc3n2Cc2ccc(Cl)cc2)CC1 [CCG 206400, 1-(1-(4-chlorobenzyl)-1H-indole-2-carbonyl)-N-(4-chlorophenethyl)piperidine-4-carboxamide] | 28.6 | 5.13
C#CCn1c(C(=O)N2CCC(C(=O)N(C)Cc3ccccc3)CC2)cc2ccccc21 [CCG 206401, N-benzyl-N-methyl-1-(1-(prop-2-yn-1-yl)-1H-indole-2-carbonyl)piperidine-4-carboxamide] | 57.4 | 
Cc1cccc2cc(C(=O)N3CCC(C(=O)NCc4ccccc4)CC3)n(Cc3ccc(Cl)cc3)c12 [CCG 206447, N-benzyl-1-(1-(4-chlorobenzyl)-7-methyl-1H-indole-2-carbonyl)piperidine-4-carboxamide] | 46.8 | 4.22
CC(C)c1ccc(CCNC(=O)C2CCN(C(=O)c3cc4ccccc4n3Cc3ccc(Cl)cc3)CC2)cc1 [CCG 206461, 1-(1-(4-chlorobenzyl)-1H-indole-2-carbonyl)-N-(4-isopropylphenethyl)piperidine-4-carboxamide] | 32.6 | 5.54
